pIC50: −log10 of the molar value. Like-named read-outs stand apart in the source and are kept apart here.
What was measured:
[1] = tested on: CAL33 cell line (head and neck); experiment: MTT assay, antitumor activity; type: cell-based
HT29 cell line (colon) = experiment: MTT assay, antitumor activity; type: cell-based
A. terreus = experiment: Antifungal disk diffusion susceptibility test (CLSI M44); type: cell-based
Procedure: (§1) Filamentous fungi and yeasts strains, from clinical origin, were supplied by Microbiology Service from The Princess Hospital, Madrid. They are detailed in Table III.
(§2) Filamentous fungi and yeast cells suspensions in distilled water was prepared from a culture of 24-48 h, depending on species, in Sabouraud agar. Each suspension was adjusted to a fixed size inoculum of 1-5×10^8 CFU/ml with a spectrophotometer (Ferraro, M J National Committee for Clinical Laboratory Standards. 2000).
(§3) Antifungal susceptibility tests were developed following the standardized methodology detailed in document CLSI: M44-4: Method for Antifungal Disk diffusion susceptibility testing of yeasts consisting of disk diffusion on agar Muller-Hinton (supplemented with 2% glucose).

C. albicans = experiment: as above; type: cell-based
Procedure: as §1, §2, §3

A. fumigatus = experiment: as above; type: cell-based
Procedure: as §1, §2, §3

A. niger = experiment: as above; type: cell-based
Procedure: as §1, §2, §3

C. lusitaniae = experiment: as above; type: cell-based
Procedure: as §1, §2, §3

C. glabrata = experiment: as above; type: cell-based
Procedure: as §1, §2, §3

A. flavus = experiment: as above; type: cell-based
Procedure: as §1, §2, §3

C. guilliermondii = experiment: as above; type: cell-based
Procedure: as §1, §2, §3

C. tropicalis = experiment: as above; type: cell-based
Procedure: as §1, §2, §3

E. coli = experiment: Kirby-Bauer disk diffusion susceptibility test; type: cell-based; details: E. coli; zone of inhibition; 200 μg/disc
Method in brief: (§4)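 Zone size around impregnated disks indicates activity; its presence or absence defines susceptible or resistant. Saline suspensions from blood-supplemented Mueller-Hinton agar cultures were adjusted to 1-5×10^8 CFU/ml before plating. Incubation lasted 18-72 h at […], with CO2 and oxygen conditions chosen for each organism.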

P. aeruginosa = experiment: Kirby-Bauer disk diffusion susceptibility test; type: cell-based; details: P. aeruginosa; zone of inhibition; 200 μg/disc
Method in brief: as §4

N. cyriacigeorgica = experiment: Kirby-Bauer disk diffusion susceptibility test; type: cell-based; details: N. cyriacigeorgica; zone of inhibition; 200 μg/disc
Method in brief: as §4

S. epidermidis = experiment: Kirby-Bauer disk diffusion susceptibility test; type: cell-based; details: S. epidermidis; zone of inhibition; 200 μg/disc
Method in brief: as §4

A. baumannii = experiment: Kirby-Bauer disk diffusion susceptibility test; type: cell-based; details: A. baumannii; zone of inhibition; 200 μg/disc
Method in brief: as §4

M. chelonae = experiment: Kirby-Bauer disk diffusion susceptibility test; type: cell-based; details: M. chelonae; zone of inhibition; 200 μg/disc
Method in brief: as §4

S. aureus = experiment: Kirby-Bauer disk diffusion susceptibility test; type: cell-based; details: S. aureus; zone of inhibition; 200 μg/disc
Method in brief: as §4

M. fortuitum = experiment: Kirby-Bauer disk diffusion susceptibility test; type: cell-based; details: M. fortuitum; zone of inhibition; 200 μg/disc
Method in brief: as §4

HIV = experiment: microbe, parasite or virus in culture; type: cell-based
Description: Assessment of in vitro antiviral activity is usually performed to estimate parameters of antiviral potency and efficacy represented by the percentage of inhibition of HIV activity or IC50. The assay utilized is based on the use of recombinant viruses in which the nef gene, […] for in vitro HIV replication, has been replaced by a Renilla reporter gene so that viral replication can be quantified directly (Garcia-Perez J et al, J Med Virol. 2007 February; 79(2):127-37). The assay was performed infecting MT-2 cells or PHA-activated PBMCs/IL-2 with viral supernatants obtained previously. The study was development in AIDS Immunopathology Unit, National Center of Microbiology, Institute of Health Carlos III, Majadahonda, Madrid, Spain.
All data are expressed as percentage relative to a control with DMSO at the same concentration. Antiviral activity and toxicity curves were performed to the compound at different concentrations.

N. carnea = experiment: Kirby-Bauer disk diffusion susceptibility test; type: cell-based, Nocardia carnea; details: N. carnea; zone of inhibition; 200 μg/disc
Method in brief: as §4

B. cereus = experiment: Kirby-Bauer disk diffusion susceptibility test; type: cell-based, Bacillus cereus; details: B. cereus; zone of inhibition; 200 μg/disc
Method in brief: as §4

T. pulmonis = experiment: Kirby-Bauer disk diffusion susceptibility test; type: cell-based, Tsukamurella pulmonis; details: T. pulmonis; zone of inhibition; 200 μg/disc
Method in brief: as §4

C. parapsilopsis = experiment: Antifungal disk diffusion susceptibility test (CLSI M44); type: cell-based, C. parapsilosis
Procedure: as §1, §2, §3

MCF7 cell line (breast) = experiment: MTT assay, antitumor activity; type: cell-based
[2] = Cellular viability (CellTiter Glo) in parallel to the anti-HIV assay; type: cell-based; details: human; concentration required to kill 50% of cells; MT-2 cells; read-out: CC50 VIH MT-2
Procedure: All assays for assessing anti-HIV activity were taken in parallel to determine cellular viability of the culture in the presence or absence of different concentrations of the isolated molecule. It was followed exactly the same methodology as in the anti-HIV assay except with the addition of complete DMEM medium instead of supernatant viral, in the same proportion, and the detection of the viability was performed with the viability detection kit CellTiter Glo (Promega), following manufacturer instructions. Viability is directly proportional to the luciferase activity obtained. All data are expressed as percentage relative to a control with DMSO at the same concentration. Antiviral activity and toxicity curves were performed to the compound at different concentrations.

M. abscessus = experiment: Kirby-Bauer disk diffusion susceptibility test; type: cell-based, Mycobacterium abscessus; details: M. abscessus; zone of inhibition; 200 μg/disc
Procedure: Bacterial strains, from clinical origin, were supplied by the National Center for Microbiology, Institute of Health Carlos III (Majadahonda, Madrid). They are detailed in Table I.
Bacterial cells suspension in sterile saline was prepared from a culture of 24-72 h, depending on bacterial species, in Mueller-Hinton Agar with 5% sheep blood. Each suspension was adjusted to a fixed size inoculum of 1-5×10^8 CFU/ml with a spectrophotometer (Ferraro, M J National Committee for Clinical Laboratory Standards. 2000).
Kirby-Bauer disk diffusion susceptibility test protocol was utilized to determine the sensitivity or resistance of pathogenic bacteria against the compounds and others antibiotics. The absence of growth around the disks is an indirect measure of the ability of this compound to inhibit an organism (Kirby, W. et al., Antibiotics Annu. 1956-1957:892). After 18 to 72 hours of incubation at […], with or without CO2, under aerobic or anaerobic conditions, depending on the bacterial species, halo of growth inhibition were obtained and evaluated.
Interpretation of susceptibility and resistance was based on the presence or absence of a zone of inhibition surrounding the disk. Kirby-Bauer disk diffusion susceptibility test is a common method which uses antibiotic-impregnated wafers to test whether bacteria are affected by antibiotics. The size of the zone of inhibition depends on how effective the antibiotic is at stopping the growth of the bacterium. A stronger antibiotic will create a larger zone, because a lower concentration of the antibiotic is enough to stop growth.

CCCCCC1=NN(C(=O)CCOC(C)=O)OC(CCCCC)C1 (stereo not drawn) [DOXA-2]
Concentration of optimal inhibition [1]: 100 nM | Concentration at which proliferation was inhibited ([1]; 10-750 nM, 24, 48 and 72 hours): 50 nM | Concentration of best inhibition (HT29 cell line (colon)): 50 nM | Activity (mm), 200 μg/disc (A. terreus): 40 mm | Activity (mm), 200 μg/disc (C. albicans): 18 mm | Activity (mm), 200 μg/disc (A. fumigatus): 30 mm | Activity (mm), 200 μg/disc (A. niger): 40 mm | Activity (mm), 200 μg/disc (C. lusitaniae): 20 mm | Activity (mm), 200 μg/disc (C. glabrata): 18 mm | Activity (mm), 200 μg/disc (A. flavus): 38 mm | Activity (mm), 200 μg/disc (C. guilliermondii): 28 mm | Activity (mm), 200 μg/disc (C. tropicalis): 20 mm | Activity (mm), 200 μg/disc (E. coli): 9 mm | Activity (mm), 200 μg/disc (P. aeruginosa): 9 mm | Activity (mm), 200 μg/disc (N. cyriacigeorgica): 26 mm | Activity (mm), 200 μg/disc (S. epidermidis): 10 mm | Activity (mm), 200 μg/disc (A. baumannii): 9 mm | Activity (mm), 200 μg/disc (M. chelonae): 30 mm | Activity (mm), 200 μg/disc (S. aureus): 10 mm | Activity (mm), 200 μg/disc (M. fortuitum): 25 mm | pIC50 (HIV; Human immunodeficiency virus 1, MT2): 7.08 | pIC50 (HIV; Human immunodeficiency virus 1, MT2, read-out: IC50 VIH MT-2): 7.08 | safety index (HIV; anti-HIV activity/toxicity profile, MT-2 cells): about 100 | Activity (mm), 200 μg/disc (N. carnea): 25 mm | Activity (mm), 200 μg/disc (B. cereus): 20 mm | Activity (mm), 200 μg/disc (T. pulmonis): 41 mm | Activity (mm), 200 μg/disc (C. parapsilopsis): 18 mm | Concentration at which proliferation was inhibited (MCF7 cell line (breast)): 250 nM | CC50 [2]: 7720 nM | Activity (mm), 200 μg/disc (M. abscessus): 25 mm
